Biological target: GluN1/GluN2B Receptors (Rattus norvegicus, UniProt P35439+Q00960)
Experiment: Two-electrode voltage-clamp IC50 determination at GluN1/GluN2B receptors expressed in Xenopus oocytes
Format: cell-based, Human or Rat
Protocol: Determination of IC50 Values of GluN1/GluN2B Receptors Expressed in Xenopus oocytes in Human or Rat Stage V and VI oocytes were surgically removed from the ovaries of large, well-fed and healthy Xenopus laevis anesthetized with 3-amino-benzoic acid ethyl ester (3 gm/l). Oocytes were injected within 24 hrs of isolation with 3-5 ng of GluN1 subunit cRNA and 7-10 ng of GluN2 cRNA subunit in a 50 nl volume, and incubated in Barth's solution at 18° C. for 2-7 d. Glass injection pipettes had tip sizes ranging from 10-20 microns, and were backfilled with mineral oil. Two electrode voltage-clamp recordings were made 2-7 days post-injection. Oocytes were placed in a dual-track plexiglass recording chamber and dual recordings were made at room temperature (23° C.) using two Warner OC725C two-electrode voltage clamp amplifiers, arranged as recommended by the manufacturer. Glass microelectrodes (1-10 Megaohms) were filled with 300 mM KCl (voltage electrode) or 3 M KCl (current electrode). The bath clamps communicated across silver chloride wires placed into each side of the recording chamber, both were assumed to be at a reference potential of 0 mV. Oocytes were perfused with a solution comprised of (in mM) 90 NaCl, 1 KCl, 10 HEPES, 10 EDTA and 0.5 BaCl2; pH was adjusted by addition of 1-3 M NaOH or HCl. Oocytes were recorded under voltage clamp at −40 mV. Final concentrations for glutamate and glycine were 50 μM and 30 μM, respectively. Concentration-response curves for experimental compounds were obtained by applying maximal glutamate/glycine, followed by glutamate/glycine plus variable concentrations of experimental compounds. Dose response curves consisting of 4 to 6 concentrations were obtained in this manner. The baseline leak current at −40 mV was measured before and after recording, and the full recording linearly corrected for any change in leak current. The level of inhibition by applied experimental compounds measured after a 6 min exposure to a compound was expressed as a percent of the initial glutamate response, and averaged together across oocytes from multiple experiments. Results were pooled, and the average percent responses at antagonist concentrations were fit by the equation, Percent Response=(100−minimum)/(1+([conc]/IC50)^nH)+minimum where minimum is the residual percent response in saturating concentration of the experimental compounds, IC50 is the concentration of antagonist that causes half of the achievable inhibition, and nH is a slope factor describing steepness of the inhibition curve. Minimum was constrained to be between zero and 20. Recordings were made at pH 6.9, pH 7.4, and pH 7.6.

Sequence of GluN1/GluN2B Receptors (Q00960 27-1482, other chains not shown): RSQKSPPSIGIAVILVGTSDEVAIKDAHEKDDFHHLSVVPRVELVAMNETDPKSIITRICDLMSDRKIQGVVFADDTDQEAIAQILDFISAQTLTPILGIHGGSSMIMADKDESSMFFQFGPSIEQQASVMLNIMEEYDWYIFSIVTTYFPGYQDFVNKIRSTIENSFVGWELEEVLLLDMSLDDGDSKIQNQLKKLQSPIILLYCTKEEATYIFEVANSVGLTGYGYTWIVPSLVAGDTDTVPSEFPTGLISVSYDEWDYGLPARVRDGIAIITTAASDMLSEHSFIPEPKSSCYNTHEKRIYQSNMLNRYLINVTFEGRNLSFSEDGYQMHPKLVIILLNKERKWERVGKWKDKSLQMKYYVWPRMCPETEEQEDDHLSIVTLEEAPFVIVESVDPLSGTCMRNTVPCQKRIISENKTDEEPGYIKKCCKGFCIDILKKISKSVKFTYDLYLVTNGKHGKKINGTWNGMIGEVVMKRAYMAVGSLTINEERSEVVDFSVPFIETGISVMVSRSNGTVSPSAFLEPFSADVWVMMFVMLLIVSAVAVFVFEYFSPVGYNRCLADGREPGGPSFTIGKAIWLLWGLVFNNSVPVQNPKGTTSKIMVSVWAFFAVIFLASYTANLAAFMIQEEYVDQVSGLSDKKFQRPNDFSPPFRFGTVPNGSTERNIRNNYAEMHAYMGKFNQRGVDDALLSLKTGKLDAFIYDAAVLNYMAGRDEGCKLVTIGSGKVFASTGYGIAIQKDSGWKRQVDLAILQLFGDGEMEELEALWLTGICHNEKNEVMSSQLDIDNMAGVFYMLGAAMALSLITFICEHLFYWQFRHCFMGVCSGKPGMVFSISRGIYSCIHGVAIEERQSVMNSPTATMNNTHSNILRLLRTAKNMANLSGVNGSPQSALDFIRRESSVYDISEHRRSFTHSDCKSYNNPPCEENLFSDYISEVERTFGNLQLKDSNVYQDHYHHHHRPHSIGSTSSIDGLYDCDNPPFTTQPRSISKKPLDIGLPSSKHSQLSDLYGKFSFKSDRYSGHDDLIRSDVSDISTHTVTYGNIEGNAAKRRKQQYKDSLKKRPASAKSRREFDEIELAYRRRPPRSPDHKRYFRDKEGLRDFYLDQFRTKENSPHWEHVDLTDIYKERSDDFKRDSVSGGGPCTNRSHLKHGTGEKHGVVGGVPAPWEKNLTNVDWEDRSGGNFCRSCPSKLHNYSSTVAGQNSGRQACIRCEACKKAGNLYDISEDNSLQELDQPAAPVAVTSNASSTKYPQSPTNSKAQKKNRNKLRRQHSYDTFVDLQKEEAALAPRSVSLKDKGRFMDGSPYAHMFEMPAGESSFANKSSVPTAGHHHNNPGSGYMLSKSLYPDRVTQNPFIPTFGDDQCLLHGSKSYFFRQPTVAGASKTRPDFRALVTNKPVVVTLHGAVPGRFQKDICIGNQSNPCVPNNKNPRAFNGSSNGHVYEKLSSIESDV

Compound | nH (slope factor of the inhibition curve) (pH 6.9) | nH (slope factor of the inhibition curve) (pH 7.6)
CCCc1ccc(N2CCN(CC(O)C=Cc3ccc4[nH]c(=O)ccc4c3)CC2)cc1 (racemic) [Compound 10, (rac-)(E)-6-(3-hydroxy-4-(4-(4-propylphenyl)piperazin-1-yl)but-1-en-1-yl)quinolin-2(1H)-one] | −0.90 | −1.24
O=C1CCc2cc(/C=C/[C@@H](O)CN3CCN(c4ccc(C(F)(F)F)cn4)CC3)ccc2N1 [Compound 45, (R,E)-6-(3-Hydroxy-4-(4-(5-(trifluoromethyl)pyridin-2-yl)piperazin-1-yl)but-1-en-1-yl)-3,4-dihydroquinolin-2(1H)-one] | −0.80 | −0.80
O=C1CCc2cc(/C=C/[C@H](O)CN3CCN(c4ccc(Cl)cc4)CC3)ccc2N1 [Compound 27, (S,E)-6-(4-(4-(4-Chlorophenyl)piperazin-1-yl)-3-hydroxybut-1-en-1-yl)-3,4-dihydro-quinolin-2(1H)-one] | −0.95 | −0.64
CC(C)c1ccc(N2CCN(C[C@@H](O)/C=C/c3ccc4c(c3)CCC(=O)N4)CC2)cc1 [Compound 25, (S,E)-6-(3-Hydroxy-4-(4-(4-isopropylphenyl)piperazin-1-yl)but-1-en-1-yl)-3,4-dihydroquinolin-2(1H)-one] | −0.61 | −1.22
CC(C)c1ccc(N2CCN(C[C@H](O)/C=C/c3ccc4c(c3)CCC(=O)N4)CC2)cc1 [Compound 29, (R,E)-6-(3-Hydroxy-4-(4-(4-isopropylphenyl)piperazin-1-yl)but-1-en-1-yl)-3,4-dihydroquinolin-2(1H)-one] | −0.54 | −1.31
O=C1CCc2cc(/C=C/C(CO)N3CCN(c4ccc(Cl)cc4)CC3)ccc2N1 (racemic) [Compound 23, (rac)-(E)-6-(3-(4-(4-chlorophenyl)piperazin-1-yl)-4-hydroxybut-1-en-1-yl)-3,4-dihydroquinolin-2(1H)-one] | −1.09 | −0.60
O=c1ccc2cc(/C=C/[C@H](O)CN3CCN(c4ccc(C5CC5)cc4)CC3)ccc2[nH]1 [Compound 13, (S,E)-6-(4-(4-(4-cyclopropylphenyl)piperazin-1-yl)-3-hydroxybut-1-en-1-yl)quinolin-2(1H)-one] | −0.81 | −0.80
O=C1CCc2cc(/C=C/[C@@H](O)CN3CCN(c4ccc(C(F)(F)F)cc4)CC3)ccc2N1 [Compound 35, (R,E)-6-(3-Hydroxy-4-(4-(4-(trifluoromethyl)phenyl)piperazin-1-yl)but-1-en-1-yl)-3,4-dihydroquinolin-2(1H)-one] | −0.68 | −0.75
O=C1NCc2cc(/C=C/[C@@H](O)CN3CCN(c4ccc(C5CC5)cc4)CC3)ccc2N1 [Compound 18, (R,E)-6-(4-(4-(4-cyclopropylphenyl)piperazin-1-yl)-3-hydroxybut-1-en-1-yl)-3,4-dihydroquinazolin-2(1H)-one] | −0.78 | −1.28
O=C1COc2cc(/C=C/[C@H](O)CN3CCN(c4ccc(C(F)(F)F)cc4)CC3)ccc2N1 [Compound 16, (S,E)-7-(3-hydroxy-4-(4-(4-(trifluoromethyl)phenyl)piperazin-1-yl)but-1-en-1-yl)-2H-benzo[b][1,4]oxazin-3(4H)-one] | −0.67 | −1.29
O=C1CCc2cc(/C=C/[C@@H](CO)N3CCN(c4ccc(C(F)(F)F)cc4)CC3)ccc2N1 [Compound 43, (S,E)-6-(4-Hydroxy-3-(4-(4-(trifluoromethyl)phenyl)piperazin-1-yl)but-1-en-1-yl)-3,4-dihydroquinolin-2(1H)-one] | −0.67 | −1.09
O=C1CCc2cc(/C=C/[C@@H](O)CN3CCN(c4ccc(Cl)cc4)CC3)ccc2N1 [Compound 31, (R,E)-6-(4-(4-(4-Chlorophenyl)piperazin-1-yl)-3-hydroxybut-1-en-1-yl)-3,4-dihydroquinolin-2(1H)-one] | −0.64 | −0.90
O=C1CCc2cc(/C=C/C(O)CN3CCN(c4ccc(Cl)cc4)CC3)ccc2N1 (racemic) [Compound 21, (rac)-(E)-6-(4-(4-(4-Chlorophenyl)piperazin-1-yl)-3-hydroxybut-1-en-1-yl)-3,4-dihydroquinolin-2(1H)-one] | −0.81 | −1.28
O=C1CCc2cc(/C=C/[C@H](O)CN3CCN(c4ccc(C(F)(F)F)cc4)CC3)ccc2N1 [Compound 33, (S,E)-6-(3-Hydroxy-4-(4-(4-(trifluoromethyl)phenyl)piperazin-1-yl)but-1-en-1-yl)-3,4-dihydroquinolin-2(1H)-one] | −0.56 | −0.65
CC(C)c1ccc(N2CCN(C[C@@H](O)/C=C/c3ccc(NC(N)=O)cc3)CC2)cc1 [Compound 36, (S,E)-1-(4-(3-Hydroxy-4-(4-(4-isopropylphenyl)piperazin-1-yl)but-1-en-1-yl)phenyl)urea] | −0.82 | −1.05
NC(=O)Nc1ccc(/C=C/[C@H](O)CN2CCN(c3ccc(C(F)(F)F)cc3)CC2)cc1 [Compound 39, (S,E)-1-(4-(3-Hydroxy-4-(4-(4-(trifluoromethyl)phenyl)piperazin-1-yl)but-1-en-1-yl)phenyl)urea] | −0.43 | −0.69
CCCc1ccc(N2CCN(C[C@@H](O)/C=C/c3ccc4[nH]c(=O)ccc4c3)CC2)cc1 [Compound 11, (S,E)-6-(3-hydroxy-4-(4-(4-propylphenyl)piperazin-1-yl)but-1-en-1-yl)quinolin-2(1H)-one] | −0.87 | −0.52
O=C1NCc2cc(/C=C/[C@@H](O)CN3CCN(c4ccc(C(F)(F)F)cc4)CC3)ccc2N1 [Compound 41, (R,E)-6-(3-hydroxy-4-(4-(4-(trifluoromethyl)phenyl)piperazin-1-yl)but-1-en-1-yl)-3,4-dihydroquinazolin-2(1H)-one] | −0.64 | −1.04
NC(=O)Nc1ccc(/C=C/[C@@H](O)CN2CCN(c3ccc(C(F)(F)F)cc3)CC2)cc1 [Compound 38, (R,E)-1-(4-(3-Hydroxy-4-(4-(4-(trifluoromethyl)phenyl)piperazin-1-yl)but-1-en-1-yl)phenyl)urea] | −0.64 | −0.69
O=C1COc2cc(/C=C/[C@@H](O)CN3CCN(c4ccc(C(F)(F)F)cc4)CC3)ccc2N1 [Compound 15, (R,E)-7-(3-hydroxy-4-(4-(4-(trifluoromethyl)phenyl)piperazin-1-yl)but-1-en-1-yl)-2H-benzo[b][1,4]oxazin-3(4H)-one] | −0.88 | −1.04

— patent US20140275060A1, “COMPOUNDS FOR THE TREATMENT OF NEUROLOGIC DISORDERS” (priority 2013, published 2014)
